Laboratory results reported in ChEMBL document CHEMBL4052716, “Discovery and development of a novel class of phenoxyacetyl amides as highly potent TRPM8 agonists for use as cooling agents” (Bioorg Med Chem Lett, 2017).
Values after ≈ are worked out from the molar mass of the structure shown. Active and inactive are the calls of the source. The calls are words filed in the database; no cut-off is given here.

Experiments:
[1] = molecular target: T1, Transient receptor potential cation channel subfamily M member 8 (Homo sapiens, UniProt Q7Z2W7); test: Agonist activity at human TRPM8 expressed in HEK293 cells assessed as increase in intracellular calcium level after 15 mins by Fluo-3-AM dye-based fluorescence assay; assay type: cell-based; settings: read-out: EC50
Target sequence in this assay (Q7Z2W7 whole entry): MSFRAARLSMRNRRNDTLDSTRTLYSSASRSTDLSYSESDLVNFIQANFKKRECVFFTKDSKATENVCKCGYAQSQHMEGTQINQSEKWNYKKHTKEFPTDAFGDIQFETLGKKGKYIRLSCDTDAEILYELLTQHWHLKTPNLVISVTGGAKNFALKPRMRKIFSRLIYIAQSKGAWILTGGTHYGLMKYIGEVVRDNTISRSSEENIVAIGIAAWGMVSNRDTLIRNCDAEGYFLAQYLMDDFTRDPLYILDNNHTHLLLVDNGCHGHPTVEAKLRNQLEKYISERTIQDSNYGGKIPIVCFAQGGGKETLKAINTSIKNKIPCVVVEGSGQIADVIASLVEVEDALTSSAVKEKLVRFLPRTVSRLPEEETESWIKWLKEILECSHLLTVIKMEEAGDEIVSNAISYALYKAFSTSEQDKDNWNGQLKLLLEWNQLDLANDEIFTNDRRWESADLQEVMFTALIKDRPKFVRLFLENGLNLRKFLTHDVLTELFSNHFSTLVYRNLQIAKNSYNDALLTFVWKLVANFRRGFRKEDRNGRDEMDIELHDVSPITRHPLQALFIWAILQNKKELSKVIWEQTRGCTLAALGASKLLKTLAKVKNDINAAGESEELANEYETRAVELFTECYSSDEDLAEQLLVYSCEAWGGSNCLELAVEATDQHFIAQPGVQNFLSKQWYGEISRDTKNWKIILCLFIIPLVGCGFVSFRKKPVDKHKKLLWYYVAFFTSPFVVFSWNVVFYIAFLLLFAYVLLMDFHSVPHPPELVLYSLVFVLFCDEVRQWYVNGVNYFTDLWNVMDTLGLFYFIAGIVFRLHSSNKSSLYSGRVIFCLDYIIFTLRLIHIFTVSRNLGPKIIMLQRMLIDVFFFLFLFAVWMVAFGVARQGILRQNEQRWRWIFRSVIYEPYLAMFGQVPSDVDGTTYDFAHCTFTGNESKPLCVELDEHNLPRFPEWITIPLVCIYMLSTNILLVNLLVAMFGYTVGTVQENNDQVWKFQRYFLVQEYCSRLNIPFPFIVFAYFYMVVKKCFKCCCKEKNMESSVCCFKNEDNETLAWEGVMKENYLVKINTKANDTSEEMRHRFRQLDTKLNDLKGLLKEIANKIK

[2] = molecular target: T1, Transient receptor potential cation channel subfamily M member 8; test: Potency index, ratio of WS-3 EC50 to compound EC50 for human TRPM8 receptor
Target sequence in this assay (Q7Z2W7 whole entry, looked up): as the sequence (Q7Z2W7 whole entry) above

[3] = Stability of the compound in pH 4.0 citric acid assessed as compound remaining after heating at 100 degC for 24 hrs; assay type: physicochemical; settings: read-out: Stability
[4] = Stability of the compound in pH 7.1 phosphoric acid assessed as compound remaining after heating at 100 degC for 24 hrs; assay type: physicochemical; settings: read-out: Stability
[5] = Stability of the compound in pH 2.8 citric acid assessed as compound remaining after heating at 100 degC for 24 hrs; assay type: physicochemical; settings: read-out: Stability
[6] = Permeability of the compound assessed as drug transport by PAMPA; assay type: physicochemical
Homo sapiens [7] = test: In vivo agonist activity at human TRPM8 in trained human subjects assessed as time duration of perceived cooling effect at 3 uM dosed as aqueous solution; assay type: functional
Homo sapiens [8] = test: In vivo agonist activity at human TRPM8 in trained human subjects assessed as concentration required to deliver cooling sensation equivalent to 45 uM WS-3 by measuring cooling intensity; assay type: functional
[9] = Thermodynamic solubility of the compound in pH 7.1 phosphoric buffer; assay type: physicochemical; settings: read-out: Therm_solubility
Homo sapiens [10] = species: Homo sapiens; test: Induction of off-taste response in rained human subjects during cooling sensation study
Homo sapiens [11] = test: In vivo agonist activity at human TRPM8 in trained human subjects assessed as time duration of perceived cooling effect at 45 uM dosed as aqueous solution; assay type: functional
Homo sapiens [12] = species: Homo sapiens; test: Induction of off-taste response in rained human subjects assessed as induction of bitterness during cooling sensation study

Row | Compound | EC50 [1] | Ratio EC50 [2] | remaining at 24 h [3] | remaining at 24 h [4] | remaining at 24 h [5] | Drug transport [6] | solubility thermodynamic [9] | Time (Homo sapiens [7]) | Activity (Homo sapiens [8]) | Activity (Homo sapiens [10]) | Time (Homo sapiens [11]) | Activity (Homo sapiens [12])
1 | Cc1ccc(OCC(=O)N(Cc2cccs2)c2ccon2)cc1 | 2 nM | 3440 | 78.1% | 0.5% | 90.8% |  |  |  |  |  |  | 
2 | CCNC(=O)[C@@H]1C[C@H](C)CC[C@H]1C(C)C |  |  |  |  |  |  |  |  |  |  | 25 min | 
3 | Cc1ccc(/C=C/C(=O)N(Cc2cccs2)c2ccn[nH]2)cc1 | 0.004 nM | > 1e+06 |  |  |  | 5% | 3.7 µM (≈ 1.2 µg/mL) |  | 3 µM |  |  | 

More lines, main results first:

Row | EC50 [1] | Ratio EC50 [2] | remaining at 24 h [3] | remaining at 24 h [4] | remaining at 24 h [5] | Drug transport [6] | solubility thermodynamic [9] | Compound | Time (Homo sapiens [7]) | Activity (Homo sapiens [8]) | Activity (Homo sapiens [10]) | Time (Homo sapiens [11]) | Activity (Homo sapiens [12])
4 | 0.3 nM | 120000 | 73.7% | 0.1% | 14.9% |  |  | Cc1ccc(OCC(=O)N(Cc2cccs2)c2ncco2)cc1 |  |  |  |  | 
5 | 0.2 nM | 35800 |  |  |  | 10% | 189 µM (≈ 61.9 µg/mL) | Cc1ccc(OCC(=O)N(Cc2cccs2)c2ccn[nH]2)cc1 | 60 min | 3 µM | Non-Toxic |  | 
6 | 422 nM | 14 |  |  |  |  |  | Cc1ccc(OCC(=O)N(Cc2cccs2)c2ccnn2C)cc1 |  | inactive |  |  | Toxic
